Measurements from US11801310B2, “Composition for improving the solubility of poorly soluble substances, use thereof and complex formulation containing thereof” (Industrial Technology Research Institute, priority 2017, dated 2023).
Values after ≈ are worked out from the molar mass of the structure shown.

What was measured:
[1] = at 25° C.; cited from earlier work
[2] = Solubility test for loteprednol etabonate (LE), Example 1-1: different amino acids, oligopeptides or monosaccharide as stabilizer; assay type: physicochemical; settings: aqueous with cosolvent or surfactant or cyclodextrin, thermodynamic from solid; LE feeding 4000 μg; re-dissolved in 2 mL deionized water, pH 5.5, room temperature, 0.22 μm filtered, HPLC
Method: The samples were formulated and analyzed according to the formulas shown in the following Table 1 and the methods described below at room temperature. […] After that, the mixture was dried in a vacuum environment to performing drying to remove the solvent therein and obtain a dried product. […] Next, the test sample was filtered with a 0.22 μm pore size filter to remove undissolved precipitate. Finally, the content of loteprednol etabonate (LE) in the test sample was analyzed by high performance liquid chromatography (HPLC).

[3] = Solubility test for LE, Example 1-2: histidine as stabilizer; assay type: physicochemical; settings: secondary water, aqueous with cosolvent or surfactant or cyclodextrin; final volume 1 mL, pH 5.5, room temperature, 0.22 μm filtered, HPLC
Description: The samples were formulated and analyzed according to the formulas shown in the following Table 3 and the methods described below at room temperature.
Hydroxypropyl-γ-cyclodextrin, a water-soluble polymer (hydroxypropyl methyl cellulose (HPMC) (molecular weight: 16676)), and histidine (His) as a stabilizer of the formulation were co-dissolved in secondary water to form a solution.
[…] After that, […], and the pH was adjusted to 5.5 with a 0.1 M HCl aqueous solution, and the final solution volume was fixed to 1 mL (the insufficient portion was replenished with secondary water) to form a test sample. Thereafter, the test sample was then filtered with a 0.22 μm pore size filter to remove undissolved precipitate. Finally, the content of loteprednol etabonate (LE) in the test sample was analyzed by high performance liquid chromatography (HPLC).

[4] = Solubility test for LE, Example 1-3: glutathione as stabilizer; assay type: physicochemical; settings: secondary water, aqueous with cosolvent or surfactant or cyclodextrin; final volume 1 mL, pH 5.5, room temperature, 0.22 μm filtered, HPLC
Method: The samples were formulated and analyzed according to the formula shown in the following Table 5 and the methods described below at room temperature.
[…] After that, the mixture was treated by a rotary evaporator to completely remove methanol, and the pH was adjusted to 5.5 with a 1 M NaOH aqueous solution, and the final solution volume was fixed to 1 mL (the insufficient portion was replenished with secondary water) to form a test sample. Thereafter, the test sample was then filtered with a 0.22 μm pore size filter to remove undissolved precipitate. Finally, the content of loteprednol etabonate (LE) in the test sample was analyzed by high performance liquid chromatography (HPLC).

Compound	Water solubility [1] [mM]	solubility [2] [µg/mL]	solubility [3] [µg/mL]	solubility [4] [µg/mL]
N[C@@H](CCC(=O)N[C@@H](CS)C(=O)NCC(=O)O)C(=O)O [GSH, glutathione]	950			
CCOC(=O)O[C@]1(C(=O)OCCl)CC[C@H]2[C@@H]3CCC4=CC(=O)C=C[C@]4(C)[C@H]3[C@@H](O)C[C@@]21C [LE, loteprednol etabonate]		1.5 (≈ 3.21 µM)	1.5 (≈ 3.21 µM)	1.5 (≈ 3.21 µM)
OC[C@@H](O)[C@@H](O)[C@H](O)[C@H](O)CO [Mannitol, mannitol]	1190			
